These results are taken from patent US4558127A, “5-Fluorouracil nitroxyl derivatives possessing antitumor activity” (priority 1984, dated 1985).

Data set [1] in a line: Stability against hydrolysis. The format is physicochemical.
Another data set deals with leukemia La. As to the kind of experiment: Antitumor activity on grafted leukemia La in mice (ELS, kinetic criterion, chemotherapeutic index). Format: in vivo, mouse. The conditions noted are these: for Chemotherapeutic index I40 = LD10/ED40 / kinetic criterion (.chi.) = 1-.phi.t/.phi.c / ELS (extension of average life span): La, C57Bl mice; for Chemotherapeutic index I40 = LD10/ED40: i/p. The text has this: (§1) For the determination of antitumor activity these compounds (I, II, III, IV), 5-fluorouracyl and Ftorafur were used in the same solvents as in the determination of toxicity.
(§2) The determination of antitumor activity was effected on grafted tumors of mice: leukemia L-1210, leukemia P-388, Leukemia La, melanoma B-16, adenocarcinoma 755 (Ca-755), as well as on grafted tumors of rats: Schwetz erythroleukosis, Walker carcinosarcoma (WCS), Geren carcinoma.
Leukemia La was grafted intraperitoneally using a suspension of leukemic cells in a physiological solution. The inoculum contained 10^8 of leukemia cells. […]
In the determination of the antitumor activity the test compounds were introduced in equitoxic doses.
The criterion of the antitumor activity for leukemia P-338, L-1210 and La is the extension of an average life span (ELS) of the test animals as compared to the control ones, expressed in percent and calculated by the formula: [formula] wherein Lt --life span of animals in the test group;
Lc --life span of animals in the control group, i.e. without administration of the test compounds.
The comparative assessment of the scope of therapeutic action is effected using chemotherapeutic indices I40, I60 and I100 : I40 =LD10 /ED40, I60 =LD10 /ED60 I100 =LD10 /ED100, where LD10 =dose causing death of 10% of the animals; ED40, ED60 and ED100 are effective doses causing extension of the animal's life span by 40, 60 and 100 percent respectively.

Data set [2] is described as follows: Toxicity (LD50), intraperitoneal administration, mongrel white mice, Burns method. Format: in vivo, mouse. The conditions noted are these: mice; for less toxic than 5-fluorouracyl, fold: relative to 5-fluorouracyl; for LD50: mouse, in vivo, ip, intraperitoneal, I, II, III as emulsion in 10% aqueous Tween-80, IV, Ftorafur, 5-fluorouracyl as aqueous solutions. The text has this:
Toxicity of the compounds according to the present invention has been determined on mongrel white mice in experimental intraperitoneal administration of these compounds and evaluated by the Burns method (using curves of accumulation of the animal death frequencies vs. dose).
As the toxicity characteristic use was made of the dose causing death of 50% of the animals employed for the experiment (LD50).
For the determination of toxicity of (1,3-bis-(2,2,5,5-tetramethyl-1-oxyl-Δ^3 -pyrrolin-3-oyl)-5-fluorouracyl(compound I), 1-(2,2,5,5-tetramethyl-1-oxyl-Δ^3 -pyrrolin-3-oyl)-5-fluorouracyl (compound II) and 3-(2,2,5,5-tetramethyl-1-oxyl-Δ^3 -pyrrolin-3-oyl)-5-fluorouracyl (compound III), these compounds were administered intraperitoneally in the form of an emulsion in a 10% aqueous solution of polyoxyethylsorbitan monooleate (Tween-80, Ferak Berlin West Germany).
For the determination of toxicity of sodium salt of 3-(2,2,5,5-tetramethyl-1-oxyl-Δ^3 -pyrrolin-3-oyl)-5-fluorouracyl (compound IV), Ftorafur and 5-fluorouracyl, these compounds were also administered intraperitoneally in the form of aqueous solutions.

A short description of another data set: Solubility. Format: physicochemical. The conditions noted are these: for solubility in organic solvents: alcohols, acetone, acetonitrile, dimethylformamide, dimethylsulphoxide; for solubility in aqueous alkalis or buffer solutions: pH above 10.
Another data set concerns Schwetz erythroleukosis. Briefly: Antitumor activity on grafted Schwetz erythroleukosis in rats. Format: in vivo, rat. The conditions noted are these: mongrel rats, single dose 25 mg/kg i/p, days 7-14.
Description: as §1, §2
(§3) In the determination of the antitumor activity the test compounds were introduced in equitoxic doses. Ftorafur was also used in the optimal dose which is equal to […].
(§4) As the criterion of antitumor activity on solid tumors used is the inhibition (I) of the tumor volume gain in comparison with the control, expressed in percent and calculated by the formula: [formula] wherein Vc --average volume of the tumor in the control,
(§5) Vt --average volume of the tumor in the experiment.

The test system of a further data set is melanoma B-16. Briefly: Antitumor activity on grafted melanoma B-16 in mice (inhibition of tumor volume gain). Format: in vivo, mouse. The conditions noted are these: for Inhibition of tumor volume gain: B-16, CBAF1 mice, days 1-10.
Description: as §1, §2, §3, §4, §5

For data set [3] the following is noted: background art; cited from earlier work.
Setting [4] is: leukemia La, relative to Ftorafur.
The mark [5] stands for this setting: single dose 75 mg/kg i/p, days 1-7 after grafting.
Where [6] appears, read: single dose 75 mg/kg i/p, days 1-7 after grafting, control life span 6,5 days.

For the molecule `CC1(C)C=C(C(=O)n2c(=O)[nH]cc(F)c2=O)C(C)(C)N1[O]` [III, 3-(2,2,5,5-tetramethyl-1-oxyl-Δ^3-pyrrolin-3-oyl)-5-fluororacyl], the stability against hydrolysis result in data set [1] (room temperature, pH 3 to 11, about 5 hours) is “do not undergo any noticeable hydrolytical decomposition”. In addition, the “Chemotherapeutic index I40 = LD10/ED40” value in the data set with leukemia La (days 1-7) was 7,8. The “kinetic criterion (.chi.) = 1-.phi.t/.phi.c” value in the data set on leukemia La (single dose 65 mg/kg i/p, days 1-7) is on record as 0,2. The “ELS (extension of average life span)” value in the data set with leukemia La (single dose 65 mg/kg i/p, days 1-7, control life span 6,5 days) is recorded as 40%. Further, in the data set with leukemia La (leukemia La), the “kinetic criterion compared with Ftorafur, in words” value was “close values” and the “therapeutic effect compared with 5-fluorouracyl, in words” value is given as “close to 5-fluorouracyl”. In the data set on leukemia La (setting [4]), the “effectiveness relative to Ftorafur as regards ELS, fold” value worked out at 2 times. In data set [2] (i/p), the “toxicity compared with Ftorafur, in words” value is reported as “approach toxicity of Ftorafur” and the “less toxic than 5-fluorouracyl, fold” value came to 5 times. Moreover, the LD50 in data set [2] was determined as 550 mg/kg. In addition, in the data set “Solubility”, the “solubility in organic solvents” value was “wellsoluble”, the “solubility in aqueous alkalis or buffer solutions” value was “well soluble” and the solubility in water entry is reported as “sparingly soluble in water”.

Take `CC1(C)C=C(C(=O)n2cc(F)c(=O)[nH]c2=O)C(C)(C)N1[O]` [II, 1-(2,2,5,5-tetramethyl-1-oxyl-Δ^3 pyrrolin-3-oyl)-5-fluorouracyl]: the “hydrolysis in aqueous solutions of alkalis” value in data set [1] (to fluorouracyl and 2,2,5,5-tetramethyl-1-oxyl-Δ^3 -pyrrolin-3-carboxylic acid, rate increases with increasing pH) is given as “rapidly hydrolyzed”. In the data set with leukemia La (days 1-7), the “Chemotherapeutic index I40 = LD10/ED40” value is listed as 2,0. Besides, the “kinetic criterion (.chi.) = 1-.phi.t/.phi.c” value in the data set on leukemia La (setting [5]) was found to be 0.5. In addition, the “ELS (extension of average life span)” value in the data set with leukemia La (setting [6]) worked out at 45%. The “therapeutic effect compared with 5-fluorouracyl, in words” value in the data set on leukemia La (leukemia La) is reported as “similar, in these characteristics, to 5-fluorouracyl”. In the data set with leukemia La (setting [4]), the “effectiveness relative to Ftorafur as regards ELS, fold” value is recorded as 3 times and the “effectiveness relative to Ftorafur as regards kinetic criterion, fold” value is recorded as 3 times. For the same molecule, the “toxicity compared with 5-fluorouracyl, in words” value in data set [2] (i/p) was “substantially similar to that of 5-fluorouracyl”. In data set [2], this molecule had an LD50 of 150 mg/kg. For the same molecule, in the data set “Solubility”, the “solubility in organic solvents” value is “wellsoluble”, the “solubility in aqueous alkalis or buffer solutions” value is listed as “well soluble” and the solubility in water result is recorded as “sparingly soluble in water”.

Consider `O=c1[nH]cc(F)c(=O)[nH]1` [5-fluorouracyl, reference compound], for which the “Inhibition of tumor volume gain” value in the data set on Schwetz erythroleukosis came out at 15%; with melanoma B-16 (single dose 25 mg/kg i/p) it was 0%. Further, the “ELS (extension of average life span)” value in the data set on leukemia La (single dose 25 mg/kg i/p, days 1-7, control life span 6.5 days) was found to be 57%; in the data set on leukemia La (single dose 35 mg/kg i/p, days 1,3,5,7, control life span 6,5 days), 57%. In the data set with leukemia La (single dose 35 mg/kg i/p, days 1,3,5,7), the “kinetic criterion (.chi.) = 1-.phi.t/.phi.c” value was 0.67. Moreover, the “Chemotherapeutic index I60 = LD10/ED60” value in the data set with leukemia La (mouse, in vivo, ip) is 3.6. In data set [2], this molecule displayed an LD50 of 100 mg/kg. The “activity on melanoma B-16, in words” value in the data set with melanoma B-16 (mouse, in vivo) was “shows no activity”. In data set [3], the “toxicity / side effects in words” value was “highly toxic, it strongly affects the function of bone marrow and gastro-intestinal tract”.

As to `CC1(C)C=C(C(=O)n2cc(F)c(=O)n(C(=O)C3=CC(C)(C)N([O])C3(C)C)c2=O)C(C)(C)N1[O]` [I, 1,3-bis-(2,2,5,5-tetramethyl-1-oxyl-Δ^3-pyrrolin-3-oyl)-5-fluorouracyl], the “Chemotherapeutic index I40 = LD10/ED40” value in the data set with leukemia La (days 1-7) is reported as 4,0. The “kinetic criterion (.chi.) = 1-.phi.t/.phi.c” value in the data set with leukemia La (setting [5]) was 0,1. The “ELS (extension of average life span)” value in the data set with leukemia La (setting [6]) is recorded as 30%. Also, in the data set on leukemia La (leukemia La), the “kinetic criterion compared with Ftorafur, in words” value was “close values” and the “therapeutic effect compared with 5-fluorouracyl, in words” value is reported as “close to 5-fluorouracyl”. Further, the “effectiveness relative to Ftorafur as regards ELS, fold” value in the data set with leukemia La (setting [4]) worked out at 2 times. In data set [2] (i/p), the “less toxic than 5-fluorouracyl, fold” value was 3.5 times. In data set [2], this molecule had an LD50 of 350 mg/kg. For the same molecule, in the data set with melanoma B-16 (single dose 75 mg/kg i/p), the “Inhibition of tumor volume gain” value was determined as 15%. Moreover, in the data set “Solubility”, the “solubility in organic solvents” value is “wellsoluble” and the solubility in water result is on record as “sparingly soluble in water”.

As usually defined, the LD50 is the dose expected to kill half of the subjects tested. A higher LD50 goes with lower toxicity.
